The results in this text go back to US20250002854A1, “METHODS OF GENERATING POPULATIONS OF TUMOUR-INFILTRATING T CELLS” (LYTIX BIOPHARMA AS, priority 2016, published 2025).

Data set [1] deals with B16F1 cells. Kind of data set: Release of cytochrome c (ELISA). The class given is cell-based, murine. Conditions: 108 μM. As for the experimental part:
B16F1 cells were plated onto 96-well culture plates as previously described above for the MTT assay. Cells were treated with 108 μM (4×IC50^4h) for designated time points (30, 60, 90, 120 and 240 minutes), while control cells were preserved in serum-free RPMI-1640 only until the experimental endpoint. Supernatants were collected and diluted 1/5 in a serum-free RPMI 1640 before being evaluated using a Rat/Mouse Cytochrome c Quantikine ELISA kit (R&D Systems, USA), according to the instructions of the manufacturer. The concentration of cytochrome c was calculated by interpolation values on the provided standard curve.
On the technique in general: An ELISA detects its analyte on a solid surface through an enzyme-linked reagent.

Another data set has as its system A20, murine lymphoma. Kind of data set: LysoTracker DND-26 in non-melanocytic cell line. The class given is cell-based. Particulars: data not shown.
For a further data set, the system named is B16F1 melanoma cells. The experiment in a line: Kill kinetics (MTT). The class given is cell-based, murine. As for the experimental part: Cells were seeded as previously described for MTT assay, and incubated with LTX-401 solutions for 5, 15, 30, 60, 90, 120 and 240 minutes. Cells were washed once with 100 μl of serum-free RPMI-1640 after incubation, and further incubated in a 10% MTT solution (diluted in a serum-free RPMI-1640) for an additional 2 h.

The test system of another data set is murine B16 melanomas. Kind of data set: Murine melanoma model, intratumoural injections of LTX-401. The format is in vivo.
The subject of data set [2] is B16F1 cells. Kind of data set: TEM electron microscopy of B16F1 cells. The format is cell-based, murine. Conditions: 108 μM. As for the experimental part: B16F1 cells were seeded in 35 mm sterile tissue culture dishes at a density of 1×10^4 cells in a volume of 2 ml of culture media, and left to adhere and grow in a cell incubator at 37° C., >95% humidity and 5% CO2 conditions. When cultured cells reached an acceptable confluence (˜80-90%), they were incubated with the 4×IC50^4h value of LTX-401 (108 μM) for different time points (5, 15, 30 and 60 minutes) and subsequently fixed in a PHEM buffered (0.1 M) solution containing 0.05% malachite green oxalate (Sigma), 0.5% glutaraldehyde (GA, Electron Microscopy Sciences) and 4% formaldehyde (FA, Electron Microscopy Sciences). Malachite green is more frequently being used as an additive to primary fixation in order to reduce lipid extraction commonly associated with sample processing. Samples were immediately loaded and processed en bloc using the PELCO Biowave Pro Laboratory Microwave (Ted Pella, Inc.), a newly introduced method considered to be advantageous over conventional bench protocols, since it reduces sample preparation from days to hours. For all microwave steps, samples were microwaved at 23° C. with a 50° C. cut-out temperature. Both malachite green/GA/FA and osmium-reduced ferrocyanide (0.8% K3Fe (CN)6/1% OsO4) fixation steps were run in “power on/off” cycles of 2 minutes on, 2 minutes off (100 W), with vacuum.
Samples were rinsed four times with 0.1 M PHEM buffer between each step (two bench rinses and two final rinses for 40 seconds at 250 W) before being stained with 1% tannic acid (Electron Microscopy Sciences, PA, USA) and 1% aqueous uranyl acetate (Electron Microscopy Sciences, PA, USA) under “power on/off” cycles of 1 minute on, 1 minute off (150 W), with vacuum. Samples were rinsed as previously described between each staining procedure, in addition to being microwaved twice in water at 250 W (vacuum off). […]

Another data set concerns MCA205 sarcoma. Conditions: mouse, in vivo. As to the method: Mice were subcutaneously injected into the right flank with 1×10^6 MCA205 cells. Tumour cell lines were inoculated into C57BL/6 mice. Tumour surfaces (longest dimension×perpendicular dimension) were routinely monitored by caliper. When tumours reached a size of 20-25 mm^2 (day 0), mice were administered intratumourally with three consecutive daily injections of 300 μg LTX-315. In T-cell depletion experiments (FIG. 24), anti-CD4 and anti-CD8 monoclonal antibodies (mAbs) (GK1.5 and 53-6.72, respectively; 200 μg per mouse) or their isotype controls (LTF-2 and 2A3, respectively) were injected intraperitoneally 3 and 4 days before the first LTX-315 injection and continued every other 7 days. All mAbs for in vivo use were obtained from BioXcell (West Lebanon, NH, USA), using the recommended isotype control mAbs.
Tumours and spleens were harvested 7 days after the first injection of LTX-315. Excised tumours were cut into small pieces and digested in RPMI-1640 medium containing Liberase at 25 μg/ml (Roche, Boulogne-Billancourt, France) and DNase1 at 150 UI/ml (Roche) for 30 min at 37° C. The mixture was subsequently passaged through a 100 μm cell strainer. […] All cells were analysed on a CyAn ADP (Beckman Coulter, Marseille, France) flow cytometer with FlowJo (Tree Star, Ashland, OR) software.

Entries after “also recorded” stand apart in the source; their conditions may differ. Square brackets hold non-standard residues; d marks the D form. Ends that are not written are not given here. Dip = N[C@H](C(=O)O)C(c1ccccc1)c1ccccc1

With `Cl.Cl.NCCNC(=O)C(CN)(CCCc1ccccc1)CCCc1ccccc1` [LTX-401], the “time at which cytochrome c is present in the supernatant” value in the data set on B16F1 cells [1] was 120 min. Moreover, in the data set with B16F1 cells [1] (experimental endpoint), the “cytochrome c in supernatant, peak” value was “approximately 40 ng/ml”. Besides, in the data set with A20, murine lymphoma, the “LysoTracker DND-26 signal” value is on record as “achieved similar results”. Moreover, in the data set with B16F1 melanoma cells (54 μM, after two hours), the cell survival came out at 50%. Further, the “time until cellular survival reduced to a minimum” value with B16F1 melanoma cells (108 μM) was in the range of 90 to 120 min. Further, the kill ratio in the data set on B16F1 melanoma cells (108 μM, after 15 min) came to 50%. In the data set with B16F1 melanoma cells (108 μM, two hours after start of treatment), this molecule displayed a cell death of about 100%. In addition, the “tumour regression / remission” value in the data set with murine B16 melanomas is “complete and long-lasting remission; also recorded: complete regression”. The ultrastructural changes result in the data set with B16F1 cells [2] (5 min) was “lost their surface morphology”; in the data set with B16F1 cells [2] (60 minutes), “Large portions of cells were necrotic”. The “mode of cell killing” value in the data set on B16F1 cells [2] (TEM) was “kills by a lytic mode of action”.

With “K-K-W-W-K-K-W-Dip-K-NH2 (KKWWKKW[Dip]K-NH2) [LTX-315]”, in the data set with MCA205 sarcoma, the “cytotoxic CD4+ TILs in tumour beds (IFNγ+, IL-17+, IFNγ+ IL-17+)” value is reported as “markedly increased” and the “cytotoxic CD8+ TILs in tumour beds (IFNγ+, TNFα+, IFNγ+ TNFα+)” value is on record as “markedly increased”.
